Data as given in ChEMBL document CHEMBL1649294, “Susceptibilities of 23 Desulfovibrio isolates from humans” (2009).
Converted amounts (≈) assume the structure as drawn.

Tests used:
Type in all cases: functional
[1] = tested on: Desulfovibrio fairfieldensis; assay: Antimicrobial activity against Desulfovibrio fairfieldensis in presence of Sulbactam by Etest method
Desulfovibrio sp. [2] = assay: Antimicrobial activity against Desulfovibrio sp. in presence of Sulbactam by Etest method
Desulfovibrio sp. [3] = assay: Antimicrobial activity against Desulfovibrio sp. by Etest method
[4] = tested on: Desulfovibrio fairfieldensis; assay: Antimicrobial activity against Desulfovibrio fairfieldensis by Etest method
[5] = tested on: Desulfovibrio desulfuricans; assay: Antimicrobial activity against Desulfovibrio desulfuricans Essex 6 by Etest method
[6] = tested on: Desulfovibrio desulfuricans; assay: Antimicrobial activity against Desulfovibrio desulfuricans MB by Etest method
Desulfovibrio piger [7] = assay: Antimicrobial activity against Desulfovibrio piger by Etest method
[8] = tested on: Desulfovibrio desulfuricans; assay: Antimicrobial activity against Desulfovibrio desulfuricans Essex 6 in presence of Sulbactam by Etest method
[9] = tested on: Desulfovibrio desulfuricans; assay: Antimicrobial activity against Desulfovibrio desulfuricans MB in presence of Sulbactam by Etest method
Desulfovibrio piger [10] = assay: Antimicrobial activity against Desulfovibrio piger in presence of Sulbactam by Etest method
Desulfovibrio sp. [11] = assay: Antimicrobial activity against Desulfovibrio sp. in presence of Tazobactam by Etest method
[12] = tested on: Desulfovibrio fairfieldensis; assay: Antimicrobial activity against Desulfovibrio fairfieldensis in presence of Tazobactam by Etest method
[13] = tested on: Desulfovibrio desulfuricans; assay: Antimicrobial activity against Desulfovibrio desulfuricans Essex 6 in presence of Tazobactam by Etest method
[14] = tested on: Desulfovibrio desulfuricans; assay: Antimicrobial activity against Desulfovibrio desulfuricans MB in presence of Tazobactam by Etest method
Desulfovibrio piger [15] = assay: Antimicrobial activity against Desulfovibrio piger in presence of Tazobactam by Etest method

Row | Structure (SMILES) | MIC [1] | MIC (Desulfovibrio sp. [2]) | MIC50 (Desulfovibrio sp. [2]) | MIC90 (Desulfovibrio sp. [2]) | MIC50 (Desulfovibrio sp. [3]) | MIC90 (Desulfovibrio sp. [3]) | MIC [4] | MIC [5] | MIC [6] | MIC (Desulfovibrio piger [7]) | MIC [8] | MIC [9] | MIC (Desulfovibrio piger [10]) | MIC (Desulfovibrio sp. [3]) | MIC50 (Desulfovibrio sp. [11]) | MIC90 (Desulfovibrio sp. [11]) | MIC [12] | MIC [13] | MIC [14] | MIC (Desulfovibrio piger [15])
1 | CC1(C)S[C@@H]2[C@H](NC(=O)[C@H](N)c3ccccc3)C(=O)N2[C@H]1C(=O)O [AMPICILLIN] | 4 µg/mL | 0.06 µg/mL | 0.38 µg/mL | 6 µg/mL | 0.75 µg/mL (≈ 2.15 µM) | 8 µg/mL (≈ 22.9 µM) | 4 µg/mL (≈ 11.4 µM) | 0.19 µg/mL (≈ 0.544 µM) | 0.19 µg/mL (≈ 0.544 µM) | 12 µg/mL (≈ 34.3 µM) | 0.125 µg/mL | 0.064 µg/mL | 0.5 µg/mL |  |  |  |  |  |  | 
2 | CCN1CCN(C(=O)N[C@@H](C(=O)N[C@@H]2C(=O)N3C(C(=O)O)=C(CSc4nnnn4C)CS[C@H]23)c2ccc(O)cc2)C(=O)C1=O [CEFOPERAZONE] | > 24 µg/mL |  | 4 µg/mL | > 256 µg/mL | > 256 µg/mL | > 256 µg/mL | > 256 µg/mL | > 16 µg/mL | 12 µg/mL (≈ 18.6 µM) | 12 µg/mL (≈ 18.6 µM) | > 3 µg/mL | 1 µg/mL | 1 µg/mL |  |  |  |  |  |  | 
3 | CO/N=C(\C(=O)N[C@@H]1C(=O)N2C(C(=O)O)=C(COC(C)=O)CS[C@H]12)c1csc(N)n1 [CEFOTAXIME] |  |  |  |  | 1.5 µg/mL (≈ 3.29 µM) | > 256 µg/mL | > 0.047 µg/mL | 0.047 µg/mL (≈ 0.103 µM) | 0.5 µg/mL (≈ 1.1 µM) | 1 µg/mL (≈ 2.2 µM) |  |  |  |  |  |  |  |  |  | 
4 | CO[C@@]1(NC(=O)Cc2cccs2)C(=O)N2C(C(=O)O)=C(COC(N)=O)CS[C@@H]21 [CEFOXITIN] |  |  |  |  | > 256 µg/mL | > 256 µg/mL | > 64 µg/mL | > 256 µg/mL | > 16 µg/mL | 16 µg/mL (≈ 37.4 µM) |  |  |  |  |  |  |  |  |  | 
5 | CO/N=C(\C(=O)N[C@@H]1C(=O)N2C(C(=O)[O-])=C(C[n+]3cccc4c3CCC4)CS[C@H]12)c1csc(N)n1 [CEFPIROME] |  |  |  |  | 4 µg/mL (≈ 7.77 µM) | > 256 µg/mL | > 256 µg/mL | 0.5 µg/mL (≈ 0.972 µM) | 0.5 µg/mL (≈ 0.972 µM) | 0.75 µg/mL (≈ 1.46 µM) |  |  |  |  |  |  |  |  |  | 
6 | CC(C)(O/N=C(\C(=O)N[C@@H]1C(=O)N2C(C(=O)[O-])=C(C[n+]3ccccc3)CS[C@H]12)c1csc(N)n1)C(=O)O [CEFTAZIDIME] |  |  |  |  | 6 µg/mL (≈ 11 µM) | > 256 µg/mL | > 256 µg/mL | > 3 µg/mL | 2 µg/mL (≈ 3.66 µM) | 3 µg/mL (≈ 5.49 µM) |  |  |  |  |  |  |  |  |  | 
7 | CC(=O)OCC1=C(C(=O)O)N2C(=O)[C@@H](NC(=O)Cc3cccs3)[C@H]2SC1 [CEPHALOTHIN] |  |  |  |  | > 256 µg/mL | > 256 µg/mL | > 256 µg/mL | > 3 µg/mL | 2 µg/mL (≈ 5.04 µM) | > 96 µg/mL |  |  |  |  |  |  |  |  |  | 
8 | O=C(N[C@H](CO)[C@H](O)c1ccc([N+](=O)[O-])cc1)C(Cl)Cl [CHLORAMPHENICOL] |  |  |  |  | 4 µg/mL (≈ 12.4 µM) | 8 µg/mL (≈ 24.8 µM) | 3 µg/mL (≈ 9.28 µM) | 1.5 µg/mL (≈ 4.64 µM) | 1.5 µg/mL (≈ 4.64 µM) | 1.5 µg/mL (≈ 4.64 µM) |  |  |  | 1.5 µg/mL (≈ 4.64 µM) |  |  |  |  |  | 
9 | O=C(O)c1cn(C2CC2)c2cc(N3CCNCC3)c(F)cc2c1=O [CIPROFLOXACIN] |  |  |  |  | 0.5 µg/mL (≈ 1.51 µM) | > 32 µg/mL | > 32 µg/mL | 0.19 µg/mL (≈ 0.573 µM) | 0.125 µg/mL (≈ 0.377 µM) | 0.125 µg/mL (≈ 0.377 µM) |  |  |  |  |  |  |  |  |  | 
10 | CCC[C@@H]1C[C@@H](C(=O)N[C@@H]([C@H]2O[C@H](SC)[C@H](O)[C@@H](O)[C@H]2O)[C@H](C)Cl)N(C)C1 [CLINDAMYCIN] |  |  |  |  | 0.125 µg/mL (≈ 0.294 µM) | 0.19 µg/mL (≈ 0.447 µM) | 0.032 µg/mL (≈ 0.0753 µM) | 0.094 µg/mL (≈ 0.221 µM) | 0.094 µg/mL (≈ 0.221 µM) | 0.016 µg/mL (≈ 0.0376 µM) |  |  |  |  |  |  |  |  |  | 
11 | CC[C@H]1OC(=O)[C@H](C)[C@@H](O[C@H]2C[C@@](C)(OC)[C@@H](O)[C@H](C)O2)[C@H](C)[C@@H](O[C@@H]2O[C@H](C)C[C@H](N(C)C)[C@H]2O)[C@](C)(O)C[C@@H](C)C(=O)[C@H](C)[C@@H](O)[C@]1(C)O [ERYTHROMYCIN] |  |  |  |  | 0.5 µg/mL (≈ 0.681 µM) | 1.5 µg/mL (≈ 2.04 µM) | 0.5 µg/mL (≈ 0.681 µM) | 0.38 µg/mL (≈ 0.518 µM) | 0.38 µg/mL (≈ 0.518 µM) | 0.016 µg/mL (≈ 0.0218 µM) |  |  |  |  |  |  |  |  |  | 
12 | C[C@H]1COc2c(N3CCN(C)CC3)c(F)cc3c(=O)c(C(=O)O)cn1c23.C[C@H]1COc2c(N3CCN(C)CC3)c(F)cc3c(=O)c(C(=O)O)cn1c23.O [LEVOFLOXACIN] |  |  |  |  | 0.75 µg/mL | > 32 µg/mL | > 32 µg/mL | 0.25 µg/mL | 0.25 µg/mL | 0.095 µg/mL |  |  |  |  |  |  |  |  |  | 
13 | C[C@@H](O)[C@H]1C(=O)N2C(C(=O)O)=C(S[C@@H]3CN[C@H](C(=O)N(C)C)C3)[C@H](C)[C@H]12 [MEROPENEM] |  |  |  |  | 0.19 µg/mL (≈ 0.495 µM) | 4 µg/mL (≈ 10.4 µM) | 2 µg/mL (≈ 5.22 µM) | 0.064 µg/mL (≈ 0.167 µM) | 0.023 µg/mL (≈ 0.06 µM) | 0.032 µg/mL (≈ 0.0834 µM) |  |  |  |  |  |  |  |  |  | 
14 | Cc1ncc([N+](=O)[O-])n1CCO [METRONIDAZOLE] |  |  |  |  | 0.125 µg/mL (≈ 0.73 µM) | 0.25 µg/mL (≈ 1.46 µM) | 0.016 µg/mL (≈ 0.0935 µM) | 0.064 µg/mL (≈ 0.374 µM) | 0.016 µg/mL (≈ 0.0935 µM) | 0.032 µg/mL (≈ 0.187 µM) |  |  |  |  |  |  |  |  |  | 
15 | CN(C)c1ccc(O)c2c1C[C@H]1C[C@H]3[C@H](N(C)C)C(O)=C(C(N)=O)C(=O)[C@@]3(O)C(O)=C1C2=O [MINOCYCLINE] |  |  |  |  | 6 µg/mL (≈ 13.1 µM) | 24 µg/mL (≈ 52.5 µM) | 4 µg/mL (≈ 8.74 µM) | 2 µg/mL (≈ 4.37 µM) | 3 µg/mL (≈ 6.56 µM) | 0.19 µg/mL (≈ 0.415 µM) |  |  |  |  |  |  |  |  |  | 
16 | CCN1CCN(C(=O)N[C@@H](C(=O)N[C@@H]2C(=O)N3[C@@H]2SC(C)(C)[C@@H]3C(=O)O)c2ccccc2)C(=O)C1=O [PIPERACILLIN] |  |  |  |  | > 256 µg/mL | > 256 µg/mL | > 256 µg/mL | > 256 µg/mL | > 32 µg/mL | > 256 µg/mL |  |  |  |  | > 256 µg/mL | > 256 µg/mL | > 256 µg/mL | > 16 µg/mL | 32 µg/mL | > 256 µg/mL
